# Key:
# Assay in all cases: relative viability (nuclei count vs DMSO), 5 days (fraction); higher = more cells survive
# [1] = test system: NCI-H1623
# Procedure, shortened: (§1)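 Lung cancer cell lines, seeded in 1536-well plates, were treated the following day by pin tool with a single drug or with five library-drug doses (not always all listed) in √10 steps on top of a fixed anchor-drug dose. Cells were fixed and nuclei stained in one step after 5 days, and nuclei were counted. Relative viability is the nuclei count for treated wells divided by that for vehicle wells, reported as medians of duplicate plates.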
# [2] = test system: NCI-H661
# Procedure, shortened: as §1
# [3] = test system: EMC-BAC-2
# Procedure, shortened: as §1
# [4] = test system: NCI-H1437
# Procedure, shortened: as §1
# [5] = test system: ABC-1
# Procedure, shortened: as §1
# [6] = test system: NCI-H1395
# Procedure, shortened: as §1
# [7] = test system: NCI-H23
# Procedure, shortened: as §1
# [8] = test system: A549
# Procedure, shortened: as §1
# [9] = test system: IA-LM
# Procedure, shortened: as §1
# [10] = test system: NCI-H1299
# Procedure, shortened: as §1
# [11] = test system: EBC-1
# Procedure, shortened: as §1
# [12] = test system: Calu-6
# Procedure, shortened: as §1
# [13] = test system: NCI-H1703
# Procedure, shortened: as §1
# [14] = test system: HCC-78
# Procedure, shortened: as §1
smiles,measurement,setting,value
COCC1(CO)C(=O)C2CCN1CC2 (configuration not stated) [PRIMA-1MET] + CCNC(=O)c1noc(-c2cc(C(C)C)c(O)cc2O)c1-c1ccc(CN2CCOCC2)cc1 [Luminespib] (partner 0.01 µM),relative viability,[1]; first compound 0.2 µM,0.592
same,relative viability,[1]; first compound 0.6325 µM,0.37
same,relative viability,[1]; first compound 2 µM,0.446
same,relative viability,[1]; first compound 6.325 µM,0.426
same,relative viability,[1]; first compound 20 µM,0.247
same,relative viability,[2]; first compound 0.2 µM,1.02
same,relative viability,[2]; first compound 0.6325 µM,0.886
same,relative viability,[2]; first compound 2 µM,0.965
same,relative viability,[2]; first compound 6.325 µM,0.929
same,relative viability,[2]; first compound 20 µM,0.886
same,relative viability,[3]; first compound 0.2 µM,1.37
same,relative viability,[3]; first compound 0.6325 µM,1.12
same,relative viability,[3]; first compound 6.325 µM,1.23
same,relative viability,[3]; first compound 20 µM,0.957
same,relative viability,[4]; first compound 0.2 µM,1.18
same,relative viability,[4]; first compound 0.6325 µM,1.08
same,relative viability,[4]; first compound 2 µM,1.09
same,relative viability,[4]; first compound 6.325 µM,1.16
same,relative viability,[4]; first compound 20 µM,1.01
same,relative viability,[5]; first compound 0.2 µM,0.534
same,relative viability,[5]; first compound 0.6325 µM,0.375
same,relative viability,[5]; first compound 2 µM,0.393
same,relative viability,[5]; first compound 6.325 µM,0.607
same,relative viability,[5]; first compound 20 µM,0.171
same,relative viability,[6]; first compound 0.2 µM,0.845
same,relative viability,[6]; first compound 0.6325 µM,0.676
same,relative viability,[6]; first compound 2 µM,0.677
same,relative viability,[6]; first compound 6.325 µM,0.603
same,relative viability,[6]; first compound 20 µM,0.406
same,relative viability,[7]; first compound 0.2 µM,0.24
same,relative viability,[7]; first compound 0.6325 µM,0.234
same,relative viability,[7]; first compound 2 µM,0.22
same,relative viability,[7]; first compound 6.325 µM,0.209
same,relative viability,[7]; first compound 20 µM,0.0464
COCC1(CO)C(=O)C2CCN1CC2 (configuration not stated) [PRIMA-1MET] + COc1cc2c(Oc3ccc(NC(=O)C4(C(=O)Nc5ccc(F)cc5)CC4)cc3F)ccnc2cc1OCCCN1CCOCC1 [Foretinib] (partner 0.25 µM),relative viability,[8]; first compound 0.2 µM,1.02
same,relative viability,[8]; first compound 0.6325 µM,0.834
same,relative viability,[8]; first compound 2 µM,1.07
same,relative viability,[8]; first compound 6.325 µM,0.807
same,relative viability,[8]; first compound 20 µM,0.894
same,relative viability,[1]; first compound 0.2 µM,0.789
same,relative viability,[1]; first compound 0.6325 µM,0.819
same,relative viability,[1]; first compound 2 µM,0.744
same,relative viability,[1]; first compound 6.325 µM,0.905
same,relative viability,[1]; first compound 20 µM,0.701
same,relative viability,[9]; first compound 0.2 µM,1.07
same,relative viability,[9]; first compound 0.6325 µM,1.12
same,relative viability,[9]; first compound 2 µM,1.35
same,relative viability,[9]; first compound 6.325 µM,1.06
same,relative viability,[9]; first compound 20 µM,1.07
same,relative viability,[10]; first compound 0.2 µM,1.13
same,relative viability,[10]; first compound 0.6325 µM,1.12
same,relative viability,[10]; first compound 2 µM,1.19
same,relative viability,[10]; first compound 6.325 µM,1.12
same,relative viability,[10]; first compound 20 µM,1.02
same,relative viability,[11]; first compound 0.2 µM,0.101
same,relative viability,[11]; first compound 0.6325 µM,0.0986
same,relative viability,[11]; first compound 2 µM,0.105
same,relative viability,[11]; first compound 6.325 µM,0.107
same,relative viability,[11]; first compound 20 µM,0.122
same,relative viability,[2]; first compound 0.2 µM,1.07
same,relative viability,[2]; first compound 0.6325 µM,1
same,relative viability,[2]; first compound 2 µM,0.975
same,relative viability,[2]; first compound 6.325 µM,0.988
same,relative viability,[2]; first compound 20 µM,0.979
same,relative viability,[3]; first compound 0.2 µM,1.17
same,relative viability,[3]; first compound 0.6325 µM,1.01
same,relative viability,[3]; first compound 6.325 µM,1.04
same,relative viability,[3]; first compound 20 µM,1.03
same,relative viability,[4]; first compound 0.2 µM,1.32
same,relative viability,[4]; first compound 0.6325 µM,1.21
same,relative viability,[4]; first compound 2 µM,1.24
same,relative viability,[4]; first compound 6.325 µM,1.21
same,relative viability,[4]; first compound 20 µM,1.17
same,relative viability,[12]; first compound 0.2 µM,0.918
same,relative viability,[12]; first compound 0.6325 µM,0.649
same,relative viability,[12]; first compound 2 µM,0.899
same,relative viability,[12]; first compound 6.325 µM,0.904
same,relative viability,[12]; first compound 20 µM,0.335
same,relative viability,[13]; first compound 0.2 µM,0.512
same,relative viability,[13]; first compound 0.6325 µM,0.368
same,relative viability,[13]; first compound 2 µM,0.353
same,relative viability,[13]; first compound 6.325 µM,0.388
same,relative viability,[13]; first compound 20 µM,0.0682
same,relative viability,[14]; first compound 0.2 µM,0.671
same,relative viability,[14]; first compound 0.6325 µM,0.477
same,relative viability,[14]; first compound 6.325 µM,0.54
same,relative viability,[14]; first compound 20 µM,0.441
same,relative viability,[5]; first compound 0.2 µM,1.19
same,relative viability,[5]; first compound 0.6325 µM,0.937
same,relative viability,[5]; first compound 2 µM,1.25
same,relative viability,[5]; first compound 6.325 µM,1.03
same,relative viability,[5]; first compound 20 µM,0.505
same,relative viability,[6]; first compound 0.2 µM,1.03
same,relative viability,[6]; first compound 0.6325 µM,0.652
same,relative viability,[6]; first compound 2 µM,1.05
same,relative viability,[6]; first compound 6.325 µM,1
same,relative viability,[6]; first compound 20 µM,0.971
same,relative viability,[7]; first compound 0.2 µM,1.09
same,relative viability,[7]; first compound 0.6325 µM,1
same,relative viability,[7]; first compound 2 µM,0.861
same,relative viability,[7]; first compound 6.325 µM,0.966
same,relative viability,[7]; first compound 20 µM,0.257

# — the supplement of paper PMC10307832
